Measurements as given in patent publication US11533912B2, “Use of cinnamate compounds in the control of fungal diseases of crops” (Institute of Plant Protection, Gansu Academy of …, priority 2019, dated 2022).
Where two headings read alike, the source gives them in different places.

Legend:
Rhizoctonia solani = assay: Ex vivo mycelial growth, growth rate method; format: cell-based; settings: 1 mg/mL; for inhibition at 1000 µg/mL: mycelial growth
Phytophthora infestans [1] = format: cell-based; settings: Phytophthora infestans (first line); 1 mg/mL
Valsa mali = assay: Ex vivo mycelial growth, growth rate method; format: cell-based; settings: 1 mg/mL; for inhibition at 1000 µg/mL: Cytospora mali, mycelial growth
Phytophthora capsici = assay: Ex vivo mycelial growth, growth rate method; format: cell-based; settings: for antifungal activity on Phytophthora capsici compared with hymexazol: supplementary determination results
Fusarium graminearum = assay: microbe, parasite or virus in culture; format: cell-based; settings: for Average Diameter of the Colony: Fusarium graminearum (first line), 1 mg/mL; for inhibition at 1000 µg/mL: Fusarium graminearum, read-out: Inhibition Rate
Mycosphaerlla melonis = assay: Ex vivo mycelial growth, growth rate method; format: cell-based; settings: 1 mg/mL
Pythium aphanidermatum = assay: Ex vivo mycelial growth, growth rate method; format: cell-based; settings: 1 mg/mL; for inhibition at 1000 µg/mL: mycelial growth
Colletotrichum capsici = assay: Ex vivo mycelial growth, growth rate method; format: cell-based; settings: 1 mg/mL; for inhibition at 1000 µg/mL: Colletotrichum truncatum, mycelial growth
[2] = tested on: Botryosphaeriana berengeriana; assay: Ex vivo mycelial growth, growth rate method (line 'Botryosphaeriana berengeriana', r23); format: cell-based; settings: Botryosphaeriana berengeriana (first line), 1 mg/mL; for inhibition at 1000 µg/mL: mycelial growth
Coniella diplodiella = assay: Ex vivo mycelial growth, growth rate method; format: cell-based; settings: 1 mg/mL; for inhibition at 1000 µg/mL: mycelial growth
[3] = tested on: F. oxysporum f. sp. vasinfectum; assay: Ex vivo mycelial growth, growth rate method; format: cell-based; settings: 1 mg/mL; for inhibition at 1000 µg/mL: Fusarium oxysporum
[4] = tested on: Gaeumannomyces graminis var. graminis and G. graminis var. tritici; assay: Ex vivo mycelial growth, growth rate method; format: cell-based; settings: 1 mg/mL; for inhibition at 1000 µg/mL: mycelial growth
[5] = tested on: Botryosphaeria berengeriana; assay: Ex vivo mycelial growth, growth rate method (line 'Botryosphaeria berengeriana', r34); format: cell-based; settings: Botryosphaeria berengeriana (second line), 1 mg/mL; for inhibition at 1000 µg/mL: mycelial growth
C. gossypii = assay: Ex vivo mycelial growth, growth rate method; format: cell-based; settings: 1 mg/mL; for inhibition at 1000 µg/mL: Colletotrichum gossypii
F. graminearum = assay: microbe, parasite or virus in culture; format: cell-based; settings: for inhibition at 1000 µg/mL: Fusarium graminearum, read-out: Inhibition Rate
Thanatephorus cucumeris = assay: Ex vivo mycelial growth, growth rate method; format: cell-based; settings: 1 mg/mL; for inhibition at 1000 µg/mL: mycelial growth
Botrytis cinerea = assay: Ex vivo mycelial growth, growth rate method; format: cell-based; settings: 1 mg/mL
Exserohilum turcicum = assay: Ex vivo mycelial growth, growth rate method; format: cell-based; settings: 1 mg/mL
F. verticillioide = assay: Ex vivo mycelial growth, growth rate method; format: cell-based; settings: 1 mg/mL; for inhibition at 1000 µg/mL: mycelial growth
Sclerotinia sclerotiorum = assay: Ex vivo mycelial growth, growth rate method; format: cell-based; settings: 1 mg/mL
Pyricularia grisea = assay: microbe, parasite or virus in culture; format: cell-based; settings: for inhibition at 1000 µg/mL: read-out: Inhibition Rate
Phytophthora infestans [6] = format: cell-based; settings: Phytophthora infestans (second line), 1 mg/mL
F. oxysporum f. sp. lini = assay: Ex vivo mycelial growth, growth rate method; format: cell-based; settings: 1 mg/mL; for inhibition at 1000 µg/mL: Fusarium oxysporum
plant pathogenic fungi = assay: organism not typed; format: cell-based
[7] = tested on: Blumeria graminis f. sp. trilici; assay: In-vivo control of wheat powdery mildew in a greenhouse; set-up: species or system Blumeria graminis f. sp. trilici on winter wheat
zucchini powdery mildew = assay: Field efficiency test on zucchini powdery mildew; format: in vivo; settings: 0.50 mg/mL
E. cichoracearum = assay: Field efficiency test on cucumber powdery mildew; settings: 0.50 mg/mL (active ingredients)
Method: The first application was started on Jun. 15, 2018, and E. cichoracearum was inoculated on June 17th (the diseased leaves were harvested from the solar greenhouse near the military airfield at Xiaguanying town, Yuzhong County, moisturized in the greenhouse for 2 days, then shredded, and filtered over a gauze, the filtrate was sprayed onto both sides of the cucumber leaves with the cone nozzle of an electric sprayer for inoculation). The second, third and fourth applications were conducted on June 23rd, July 2nd, and July 9th respectively, the water consumptions of which were adjusted promptly according to the amount of water desired for spraying evenly onto both sides of the control leaves. 10 days after the fourth application, the number of disease leaves at each grade of powdery mildew was investigated following the grading standard of 9 grades, to calculate the disease index and the control effect.

[8] = tested on: Erysiphe cucurbitacearum or Sphaerotheca cucurbitae; assay: In-vivo control of zucchini powdery mildew in a greenhouse
Method: (2) In-Vivo Determination Method • Zucchini (Variety: Wuwei Xianglin extra-early 1st generation) were cultured in pots in a greenhouse, and inoculated with Erysiphe cucurbitacearum or Sphaerotheca cucurbitae at the stage of 3 to 4 leaves. […] Both sides of the leaves were sprayed evenly with a small hand-held sprayer so that the leaves were wetted by the liquor without loss. Applications were conducted every 7 days consecutively for 4 times. 10 days after the fourth application, the number of disease leaves at each grade of powdery mildew was investigated for the whole plant following the grading standard of 9 grades, to calculate the disease index and the control effect. The computational formula is as below: Disease index=[(Number of disease leaves at each grade×Corresponding grade value)/(Total number of investigated leaves×9)]×100; Control effect=(Disease index of the clear water control−Treated disease index)/Disease index of the clear water control×100.

E. polygoni = assay: In-vivo control of marrow bean powdery mildew in a greenhouse
Method: (2) In-Vivo Determination Method • Marrow bean (Variety: Thailand Jiadouwang) were cultured in pots in a greenhouse, and inoculated with E. polygoni at the stage of 4 leaves. […] Both sides of the leaves were sprayed evenly with a small hand-held sprayer so that the leaves were wetted by the liquor without loss. Applications were conducted every 7 days consecutively for 4 times. 10 days after the fourth application, the number of disease leaves at each grade of powdery mildew was investigated for the whole plant following the grading standard of 9 grades, to calculate the disease index and the control effect.

[9] = tested on: damping-off (P. aphanidermatum, P capsici); assay: In-vivo control of pepper damping-off in a greenhouse (sick soil); settings: 0.80 mg/mL, 200 mL liquor per pot
Method: (§1) (2) In-Vivo Determination Method • Sick soil of damping-off (P. aphanidermatum, P capsici) was collected from the fields of tomatoes, eggplants and peppers in solar greenhouse, and mixed evenly in equal proportion. Tomatoes (Variety: Song Tian Fen Yang Yang, 100 grains), eggplants (Variety: Lanza No. 2 F1 long eggplant, 100 grains), pepper (Longjiao 2 F1, 100 grains) were seeded quantitatively with the sick soil in pots (diameter: 15 cm) in a greenhouse, additionally with sterile vermiculite as the control (each 100 grains for determining the germination rate). […] The computational formula is as below: Mortality of Seedlings (%)=[number of survival seedlings in the seeded grains−number of seeded grains×(100%−germination rate)]/number of seeded grains×100; Control Effect (%)=(mortality of control seedlings−mortality of treated seedlings)/mortality of control seedlings×100.

[10] = tested on: damping-off (P. aphanidermatum, P capsici); assay: In-vivo control of eggplant damping-off in a greenhouse (sick soil); settings: 0.80 mg/mL, 200 mL liquor per pot
Method: as §1

Pythium ultimum = assay: Supplementary determination of antifungal activity; settings: supplementary determination results
Method: (3) Ex Vivo Bioassay Method • The inhibition of samples for testing on the mycelial growth of plant pathogenic fungi for testing is determined with a growth rate method. […] Fungal cakes with a diameter of 4 mm are taken from the edge of the colony, inoculated into the center of a PDA plate containing different agents of different concentrations and the DMSO control, with one piece of fungal cake inoculated in each plate (with a diameter of 9 mm), and incubated in a constant temperature incubator at a temperature of 22±1.5° C. 7 days later (10˜20 days may be needed for some pathogenic fungi), the diameter of the colony is measured with a cross over method according to the mycelial growth profile of the control pathogenic fungi, then the inhibition rate of mycelial growth is calculated. The computational formula is as below: the inhibition rate of mycelial growth (%)=[(the diameter of the control colony−the diameter of the treated colony)/the diameter of the control colony]×100.

[11] = mycelial growth, Phytophthora capsici, 1 mg/mL
[12] = F. graminearum (second line), 1 mg/mL

SMILES: CCOC(=O)/C=C/c1ccc2c(c1)OCO2
- Average Diameter of the Colony (Rhizoctonia solani): 0.80 cm
- inhibition at 1000 µg/mL (Rhizoctonia solani): 88.8%
- Average Diameter of the Colony (Phytophthora infestans [1]): 2.01 cm
- Average Diameter of the Colony (Valsa mali): 0.00 cm
- inhibition at 1000 µg/mL (Valsa mali): 100%
- Average Diameter of the Colony (Phytophthora capsici; Phytophthora capsici, 1 mg/mL): 1.42 cm
- inhibition at 1000 µg/mL (Phytophthora capsici; [11]): 73.2%
- antifungal activity on Phytophthora capsici compared with hymexazol (Phytophthora capsici): superior to that of the control agent, hymexazol
- Average Diameter of the Colony (Fusarium graminearum): 3.00 cm
- inhibition at 1000 µg/mL (Fusarium graminearum): 43.9%
- Average Diameter of the Colony (Mycosphaerlla melonis): 0.75 cm
- inhibition at 1000 µg/mL (Mycosphaerlla melonis; mycelial growth): 91.3%
- Average Diameter of the Colony (Pythium aphanidermatum): 2.60 cm
- inhibition at 1000 µg/mL (Pythium aphanidermatum): 61.2%
- Average Diameter of the Colony (Colletotrichum capsici): 1.49 cm
- inhibition at 1000 µg/mL (Colletotrichum capsici): 78%
- Average Diameter of the Colony [2]: 4.20 cm
- inhibition at 1000 µg/mL [2]: 26.3%
- Average Diameter of the Colony (Coniella diplodiella): 0.00 cm
- inhibition at 1000 µg/mL (Coniella diplodiella): 100%
- Average Diameter of the Colony [3]: 2.58 cm
- inhibition at 1000 µg/mL ([3]; mycelial growth): 64.4%
- Average Diameter of the Colony [4]: 2.45 cm
- inhibition at 1000 µg/mL [4]: 65.7%
- Average Diameter of the Colony [5]: 3.45 cm
- inhibition at 1000 µg/mL [5]: 49.3%
- Average Diameter of the Colony (C. gossypii): 1.74 cm
- inhibition at 1000 µg/mL (C. gossypii; mycelial growth): 67.8%
- Average Diameter of the Colony (F. graminearum; [12]): 1.73 cm
- inhibition at 1000 µg/mL (F. graminearum): 79.9%
- Average Diameter of the Colony (Thanatephorus cucumeris): 3.75 cm
- inhibition at 1000 µg/mL (Thanatephorus cucumeris): 56.4%
- Average Diameter of the Colony (Botrytis cinerea): 2.17 cm
- inhibition at 1000 µg/mL (Botrytis cinerea; mycelial growth): 71%
- Average Diameter of the Colony (Exserohilum turcicum): 1.52 cm
- inhibition at 1000 µg/mL (Exserohilum turcicum; mycelial growth): 75.5%
- Average Diameter of the Colony (F. verticillioide): 2.91 cm
- inhibition at 1000 µg/mL (F. verticillioide): 13.9%
- Average Diameter of the Colony (Sclerotinia sclerotiorum): 4.71 cm
- inhibition at 1000 µg/mL (Sclerotinia sclerotiorum; mycelial growth): 45.2%
- Average Diameter of the Colony (Pyricularia grisea; 1 mg/mL): 2.70 cm
- inhibition at 1000 µg/mL (Pyricularia grisea): 25.6%
- Average Diameter of the Colony (Phytophthora infestans [6]): 0.00 cm
- Average Diameter of the Colony (F. oxysporum f. sp. lini): 6.97 cm
- inhibition at 1000 µg/mL (F. oxysporum f. sp. lini; mycelial growth): 22.6%
- inhibition at 1000 µg/mL (plant pathogenic fungi; read-out: inhibition rate on mycelial growth, range over 5 fungi): 88.8 to 100%
- Control Effect ([7]; 0.143 mg/mL): 74.28%
- Control Effect ([7]; 0.20 mg/mL): 77.65%
- Control Effect (zucchini powdery mildew): 85.56%
- control effect on cucumber powdery mildew (E. cichoracearum): 80.95%
- Control Effect ([8]; 0.20 mg/mL): 77.06%
- Control Effect ([8]; 0.333 mg/mL): 96.21%
- Control Effect ([8]; 0.50 mg/mL): 97.93%
- Control Effect (E. polygoni; 0.10 mg/mL): 75.92%
- Control Effect (E. polygoni; 0.143 mg/mL): 95.20%
- Control Effect (E. polygoni; 0.20 mg/mL): 95.49%
- control effect on pepper damping-off [9]: 52%
- control effect on eggplant damping-off [10]: 53.63%

SMILES: CO/C=C(/C(=O)OC)c1ccccc1Oc1cc(Oc2ccccc2C#N)ncn1 [Azoxystrobin, azoxystrobin, reference compound]
- Inhibition Rate (Phytophthora capsici; [11]): 25.55%
- Inhibition Rate (Mycosphaerlla melonis; mycelial growth): 56.33%
- Inhibition Rate ([3]; mycelial growth): 66.33%
- Inhibition Rate (C. gossypii; mycelial growth): 40.33%
- Inhibition Rate (F. graminearum; mycelial growth, F. graminearum (second line), 1 mg/mL): 30.78%
- Inhibition Rate (Botrytis cinerea; mycelial growth): 51.89%
- Inhibition Rate (Exserohilum turcicum; mycelial growth): 27.78%
- Inhibition Rate (Sclerotinia sclerotiorum; mycelial growth): 51.11%
- Inhibition Rate (Pyricularia grisea; mycelial growth, 1 mg/mL): 48.11%
- Inhibition Rate (Phytophthora infestans [6]; mycelial growth): 100%
- Inhibition Rate (F. oxysporum f. sp. lini; mycelial growth): 34.11%

SMILES: CCOC(=O)/C=C/c1ccc(OC)c(OC)c1 [ethyl 3-(3′,4′-dimethoxyphenyl) acrylate]
- Average Diameter of the Colony (Rhizoctonia solani): 0.00 cm
- inhibition at 1000 µg/mL (Rhizoctonia solani): 100%
- Average Diameter of the Colony (Phytophthora infestans [1]): 1.33 cm
- Average Diameter of the Colony (Valsa mali): 0.00 cm
- inhibition at 1000 µg/mL (Valsa mali): 100%
- Average Diameter of the Colony (Phytophthora capsici; Phytophthora capsici, 1 mg/mL): 0.75 cm
- inhibition at 1000 µg/mL (Phytophthora capsici; [11]): 85.8%
- antifungal activity on Phytophthora capsici compared with hymexazol (Phytophthora capsici): superior to that of the control agent, hymexazol
- Average Diameter of the Colony (Fusarium graminearum): 1.40 cm
- inhibition at 1000 µg/mL (Fusarium graminearum): 73.8%
- Average Diameter of the Colony (Mycosphaerlla melonis): 0.05 cm
- inhibition at 1000 µg/mL (Mycosphaerlla melonis; mycelial growth): 99.4%
- Average Diameter of the Colony (Pythium aphanidermatum): 0.73 cm
- inhibition at 1000 µg/mL (Pythium aphanidermatum): 89.1%
- Average Diameter of the Colony (Colletotrichum capsici): 0.83 cm
- inhibition at 1000 µg/mL (Colletotrichum capsici): 87.8%
- Average Diameter of the Colony [2]: 1.58 cm
- inhibition at 1000 µg/mL [2]: 72.3%
- Average Diameter of the Colony (Coniella diplodiella): 0.00 cm
- inhibition at 1000 µg/mL (Coniella diplodiella): 100%
- Average Diameter of the Colony [3]: 2.68 cm
- inhibition at 1000 µg/mL ([3]; mycelial growth): 63%
- Average Diameter of the Colony [4]: 2.56 cm
- inhibition at 1000 µg/mL [4]: 64.2%
- Average Diameter of the Colony [5]: 2.95 cm
- inhibition at 1000 µg/mL [5]: 56.6%
- Average Diameter of the Colony (C. gossypii): 1.33 cm
- inhibition at 1000 µg/mL (C. gossypii; mycelial growth): 75.4%
- Average Diameter of the Colony (F. graminearum; [12]): 2.74 cm
- inhibition at 1000 µg/mL (F. graminearum): 68.1%
- Average Diameter of the Colony (Thanatephorus cucumeris): 0.94 cm
- inhibition at 1000 µg/mL (Thanatephorus cucumeris): 89.1%
- Average Diameter of the Colony (Botrytis cinerea): 0.61 cm
- inhibition at 1000 µg/mL (Botrytis cinerea; mycelial growth): 91.9%
- Average Diameter of the Colony (Exserohilum turcicum): 0.56 cm
- inhibition at 1000 µg/mL (Exserohilum turcicum; mycelial growth): 91%
- Average Diameter of the Colony (F. verticillioide): 2.28 cm
- inhibition at 1000 µg/mL (F. verticillioide): 32.5%
- Average Diameter of the Colony (Sclerotinia sclerotiorum): 1.34 cm
- inhibition at 1000 µg/mL (Sclerotinia sclerotiorum; mycelial growth): 84.4%
- Average Diameter of the Colony (Pyricularia grisea; 1 mg/mL): 5.47 cm
- inhibition at 1000 µg/mL (Pyricularia grisea): 39.2%
- Average Diameter of the Colony (Phytophthora infestans [6]): 0.00 cm
- Average Diameter of the Colony (F. oxysporum f. sp. lini): 6.17 cm
- inhibition at 1000 µg/mL (F. oxysporum f. sp. lini; mycelial growth): 31.4%
- inhibition at 1000 µg/mL (plant pathogenic fungi; read-out: inhibition rate on mycelial growth, range over 12 fungi): 84.4 to 100%
- Control Effect ([7]; 0.143 mg/mL): 79.47%
- Control Effect ([7]; 0.20 mg/mL): 91.55%
- Control Effect (zucchini powdery mildew): 91.93%
- control effect on cucumber powdery mildew (E. cichoracearum): 85.18%
- antifungal activity on Pythium ultimum compared with carbendazim (Pythium ultimum): superior to that of the control agent, carbendazim
- Control Effect ([8]; 0.20 mg/mL): 81.83%
- Control Effect ([8]; 0.333 mg/mL): 95.52%
- Control Effect ([8]; 0.50 mg/mL): 98.63%
- Control Effect (E. polygoni; 0.10 mg/mL): 83.69%
- Control Effect (E. polygoni; 0.143 mg/mL): 97.09%
- Control Effect (E. polygoni; 0.20 mg/mL): 100%
- control effect on pepper damping-off [9]: 64.57%
- control effect on eggplant damping-off [10]: 48.71%
